The IC50 is the point on the concentration scale where inhibition reaches its midpoint. Low values mean higher potency, high ones lower potency.

Where only a bound is given, the exact number is not on record here.

In one experiment the target is c-Kit (Homo sapiens, UniProt P10721). The experiment can be described thus: c-Kit kinase assay as described in WO 2005/030140 A2. Format: biochemical. The note with it: assays described in WO 2005/030140 A2. The source says: (§1) Other utilities of this compound are further described in WO 2005/030140 A2.
The target of a further experiment is c-Met (Homo sapiens, UniProt P08581). As to the kind of experiment: c-Met kinase assay as described in WO 2005/030140 A2. Format: biochemical. Conditions: assays described in WO 2005/030140 A2.
From the text: as §1

Chain of c-Kit (P10721 26-976): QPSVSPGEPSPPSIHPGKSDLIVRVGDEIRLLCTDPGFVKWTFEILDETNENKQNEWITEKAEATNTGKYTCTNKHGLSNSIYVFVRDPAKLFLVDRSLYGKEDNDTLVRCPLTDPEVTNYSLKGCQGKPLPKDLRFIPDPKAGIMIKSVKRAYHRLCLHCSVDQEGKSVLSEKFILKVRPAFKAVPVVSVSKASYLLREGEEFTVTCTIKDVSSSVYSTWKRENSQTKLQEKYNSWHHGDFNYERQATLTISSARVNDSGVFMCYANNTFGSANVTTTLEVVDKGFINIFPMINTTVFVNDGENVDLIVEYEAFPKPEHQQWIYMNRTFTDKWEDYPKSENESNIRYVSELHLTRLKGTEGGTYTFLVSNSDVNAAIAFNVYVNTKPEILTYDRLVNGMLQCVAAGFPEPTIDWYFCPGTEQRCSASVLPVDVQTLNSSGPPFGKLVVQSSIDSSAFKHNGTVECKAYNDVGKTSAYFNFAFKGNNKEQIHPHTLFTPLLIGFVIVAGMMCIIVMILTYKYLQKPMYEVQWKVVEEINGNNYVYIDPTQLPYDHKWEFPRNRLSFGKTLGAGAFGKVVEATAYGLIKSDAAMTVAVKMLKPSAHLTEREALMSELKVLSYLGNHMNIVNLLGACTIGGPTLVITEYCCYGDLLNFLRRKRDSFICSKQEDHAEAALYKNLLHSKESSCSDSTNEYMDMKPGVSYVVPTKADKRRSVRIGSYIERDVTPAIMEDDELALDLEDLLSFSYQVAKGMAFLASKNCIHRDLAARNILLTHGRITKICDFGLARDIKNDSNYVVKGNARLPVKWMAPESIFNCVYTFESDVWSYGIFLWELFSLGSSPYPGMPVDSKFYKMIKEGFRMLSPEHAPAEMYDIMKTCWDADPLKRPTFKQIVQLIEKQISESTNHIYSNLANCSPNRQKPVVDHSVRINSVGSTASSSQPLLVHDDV
Chain of c-Met (P08581 25-1390): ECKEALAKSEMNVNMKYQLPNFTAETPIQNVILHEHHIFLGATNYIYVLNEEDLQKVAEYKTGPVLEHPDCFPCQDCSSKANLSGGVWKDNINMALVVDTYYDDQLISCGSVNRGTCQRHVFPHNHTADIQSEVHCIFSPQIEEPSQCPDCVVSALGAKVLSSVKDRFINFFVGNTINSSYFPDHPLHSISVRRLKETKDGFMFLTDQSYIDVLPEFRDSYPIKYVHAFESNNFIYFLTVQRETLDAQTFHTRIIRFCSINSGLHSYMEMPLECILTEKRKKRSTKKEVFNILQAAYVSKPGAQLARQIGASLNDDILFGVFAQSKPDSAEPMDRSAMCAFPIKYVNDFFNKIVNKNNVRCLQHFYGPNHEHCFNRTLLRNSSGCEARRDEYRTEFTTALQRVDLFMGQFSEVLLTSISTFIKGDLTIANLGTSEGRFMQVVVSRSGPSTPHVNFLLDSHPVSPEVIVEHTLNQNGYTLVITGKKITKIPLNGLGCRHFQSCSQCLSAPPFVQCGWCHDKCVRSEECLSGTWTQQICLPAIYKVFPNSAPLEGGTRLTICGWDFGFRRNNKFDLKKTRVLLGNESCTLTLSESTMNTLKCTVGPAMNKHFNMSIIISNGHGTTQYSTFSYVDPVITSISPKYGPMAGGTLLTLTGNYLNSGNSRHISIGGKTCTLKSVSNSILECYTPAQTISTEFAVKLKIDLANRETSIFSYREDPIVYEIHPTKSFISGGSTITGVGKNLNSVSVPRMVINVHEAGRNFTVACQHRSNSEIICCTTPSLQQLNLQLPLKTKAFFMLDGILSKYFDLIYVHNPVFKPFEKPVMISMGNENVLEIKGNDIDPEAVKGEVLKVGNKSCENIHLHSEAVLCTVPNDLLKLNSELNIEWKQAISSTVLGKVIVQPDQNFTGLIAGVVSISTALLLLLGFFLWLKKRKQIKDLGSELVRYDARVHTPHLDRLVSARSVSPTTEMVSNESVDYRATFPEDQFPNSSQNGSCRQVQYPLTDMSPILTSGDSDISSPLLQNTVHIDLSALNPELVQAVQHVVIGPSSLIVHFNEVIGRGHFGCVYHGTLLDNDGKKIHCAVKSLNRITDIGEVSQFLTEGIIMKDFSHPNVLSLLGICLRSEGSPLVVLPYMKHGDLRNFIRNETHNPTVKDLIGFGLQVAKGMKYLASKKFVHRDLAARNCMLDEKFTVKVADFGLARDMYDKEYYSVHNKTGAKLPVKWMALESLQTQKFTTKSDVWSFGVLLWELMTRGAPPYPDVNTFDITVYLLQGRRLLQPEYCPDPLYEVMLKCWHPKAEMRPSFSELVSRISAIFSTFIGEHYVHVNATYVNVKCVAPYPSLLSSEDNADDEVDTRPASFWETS

Take `COc1cc2c(Oc3ccc(NC(=O)C(=O)NCCc4ccccc4)cc3F)ccnc2cc1OCCCN1CCOCC1` [title compound, N-{3-Fluoro-4-[6-methoxy-7-(3-morpholin-4-yl-propoxy)-quinolin-4-yloxy]-phenyl}-N′-phenethyl-oxalamide]: the IC50 against c-Kit and at c-Met was less than 50 nM in each case.

Values taken from patent US20130030172A1, “Methods of Preparing Quinoline Derivatives” (Exelixis, Inc., priority 2008, published 2013).
